Structures can show the parent of a compound that is named as a salt.
biological target: Cdc7/ASK (Homo sapiens, UniProt O00311); assay: Cdc7 Biochemical Assay Method 2: 384 well mobility shift assay (EZ Reader II), MCM2 peptide substrate; parameters: purchased; details: 12.5 μM ATP, read-out: Biochemical Method 2 (pIC50) (converted)
Description: This protocol describes a method for assaying Cdc7/ASK for activity. The assay is a 384 well mobility shift assay (MSA) run on the EZ Reader II microfluidics plate reader (Caliper LifeSciences), utilising a peptide substrate based on the MCM2 sequence. The assay technology is based on the change in mobility between the peptide substrate and the phosphorylated product. A 10 nL volume of the reaction mixture is sipped onto the microfluidic chip where the substrate and product are separated by electrophoresis and detected via laser-induced fluorescence (488 nm LED). The reaction can be monitored in real-time for kinetic experiments or as an end-point for IC50 determinations. The % conversion of substrate is calculated from peak heights of product (P) and substrate (S) peptides (% conversion=P/(P+S)*100).
• 10× Assay Buffer: 200 mM HEPES pH 8, 100 mM MgCl2, 0.1% v/v Triton X-100 and 15 mM DTT. Prepare fresh buffer from 1 M HEPES pH 8, 1 M MgCl2, 1 M DTT and 10% Triton x-100 stocks for each experiment. • Cdc7/ASK is purchased from commercial suppliers and used in the assay at a final assay concentration of 0.847 ng/μL or 9.2 nM. • MCM2 peptide is purchased from commercial suppliers and used in the assay at a final assay concentration of 2.5 μM. • ATP used in the assay at a final assay concentration of 12.5 μM. Methods • 1. Prepare intermediate (daughter) compound plate by transferring 2 μL of compound from the mother plate to 18 μL of 33.3% DMSO in a clear polypropylene plate. • 2. Dry-spot 1 μL of compound from the intermediate compound plate to empty assay plate. • 3. Add 5 μL of 1.694 ng/μL CDC7/ASK working solution to ‘test’ and ‘control’ wells or […] of 2× Assay Buffer to ‘blank’ wells. • 4. Add 4 μL 2.5 μM peptide/12.5 μM ATP working solution to all wells. • 5. Incubate at 37° C. for 1 hour then remove from the incubator and leave for a further 1 hour at room temperature. • 6. Place plate into an EZReader II to read.
Percentage inhibition values were calculated from % of substrate conversion values, using the no compound (DMSO) and no enzyme control values as 0% and 100% inhibition, respectively. IC50 determination was performed with ExcelFit software (IDBS) using curve fit 205. Z′ factors were determined for each plate tested and were all above 0.5.

Sequence of Cdc7/ASK (O00311 whole entry): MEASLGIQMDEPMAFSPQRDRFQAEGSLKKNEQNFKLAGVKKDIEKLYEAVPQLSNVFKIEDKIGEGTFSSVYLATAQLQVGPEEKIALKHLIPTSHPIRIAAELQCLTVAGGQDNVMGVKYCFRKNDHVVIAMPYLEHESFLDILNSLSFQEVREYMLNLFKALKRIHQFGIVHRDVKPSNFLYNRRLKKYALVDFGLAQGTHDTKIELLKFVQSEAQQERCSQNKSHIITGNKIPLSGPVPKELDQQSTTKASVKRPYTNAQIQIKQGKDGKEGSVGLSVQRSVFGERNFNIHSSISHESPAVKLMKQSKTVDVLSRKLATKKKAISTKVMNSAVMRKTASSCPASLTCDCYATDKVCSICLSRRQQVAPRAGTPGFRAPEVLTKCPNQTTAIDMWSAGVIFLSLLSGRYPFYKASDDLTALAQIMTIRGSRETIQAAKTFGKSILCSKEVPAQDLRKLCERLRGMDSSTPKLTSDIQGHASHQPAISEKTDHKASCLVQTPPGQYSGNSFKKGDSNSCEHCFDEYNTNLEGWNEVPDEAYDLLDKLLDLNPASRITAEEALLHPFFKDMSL
Sequence of Cdc7/ASK (Q9UBU7 whole entry partner): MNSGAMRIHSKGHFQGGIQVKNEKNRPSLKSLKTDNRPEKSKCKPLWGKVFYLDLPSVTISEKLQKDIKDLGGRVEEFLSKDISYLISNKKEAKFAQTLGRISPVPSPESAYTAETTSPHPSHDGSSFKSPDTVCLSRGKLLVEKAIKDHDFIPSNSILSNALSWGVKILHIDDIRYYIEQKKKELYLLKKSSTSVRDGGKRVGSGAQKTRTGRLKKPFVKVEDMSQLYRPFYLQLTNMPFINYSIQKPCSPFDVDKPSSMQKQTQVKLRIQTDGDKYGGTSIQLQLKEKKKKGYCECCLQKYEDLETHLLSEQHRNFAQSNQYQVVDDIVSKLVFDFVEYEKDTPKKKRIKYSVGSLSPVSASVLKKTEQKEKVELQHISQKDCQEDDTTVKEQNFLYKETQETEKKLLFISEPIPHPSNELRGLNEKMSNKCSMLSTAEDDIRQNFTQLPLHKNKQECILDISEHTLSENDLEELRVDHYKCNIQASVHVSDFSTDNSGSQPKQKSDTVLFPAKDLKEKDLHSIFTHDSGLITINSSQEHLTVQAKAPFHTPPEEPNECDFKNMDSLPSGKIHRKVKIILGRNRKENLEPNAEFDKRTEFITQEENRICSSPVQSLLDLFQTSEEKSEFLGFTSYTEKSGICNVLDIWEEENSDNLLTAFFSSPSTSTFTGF

| IC50 [nM] | Structure (SMILES) |
| --- | --- |
| 1.78 | NC[C@@H]1CCCN(c2nc(-c3ccnc(F)c3)[nH]c(=O)c2Cl)C1 [Compound 363] |
| 0.501 | C[C@@H]1CNCCN1c1nc(-c2ccncc2)[nH]c(=O)c1Cl [Compound 364] |
| 1.02 | N[C@H]1CCCN(c2nc(-c3ccnc(F)c3)[nH]c(=O)c2Cl)C1 [Compound 317] |
| 0.741 | NC[C@H]1CCCN(c2nc(-c3ccnc(F)c3)[nH]c(=O)c2Cl)C1 [Compound 362] |
| 0.575 | O=c1[nH]c(-c2ccnc(F)c2)nc(N2CCN[C@@H](C(F)(F)F)C2)c1Cl [Compound 314] |
| 0.575 | C[C@@H]1CNCCN1c1nc(-c2ccnc(F)c2)[nH]c(=O)c1Cl [Compound 323] |
| 1.51 | N[C@@H]1CCCN(c2nc(-c3ccnc(F)c3)[nH]c(=O)c2Cl)C1 [Compound 319] |

More lines, now with the values behind:

| Structure (SMILES) | IC50 [nM] |
| --- | --- |
| CC(C)[C@H]1CN(c2nc(-c3ccncc3)[nH]c(=O)c2F)CCN1 [Compound 308] | 0.912 |
| CC(C)(C)[C@H]1CN(c2nc(-c3ccncc3)[nH]c(=O)c2F)CCN1 [Compound 185] | 0.776 |
| O=c1[nH]c(-c2ccncc2)nc(N2CCCOCC2)c1Cl [Compound 186] | 3.89 |
| CC(C)[C@H]1CN(c2nc(-c3ccnc(F)c3)[nH]c(=O)c2Cl)CCN1 [Compound 170] | 1.17 |

system: Cdc7 (pS40MCM2 levels in HCT116 cells); assay: Cdc7 Cell Pharmacodynamics Assay Method 2B: pS40MCM2 levels in HCT116 cells, 18 hours; format: cell-based; details: Homo sapiens, HCT-116, read-out: Biomarker Method 2B (pEC50) (converted)
In short: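 HCT116 cells seeded at 20,000/well, settled overnight, then treated with compound (1:400 dilution from compound plate) for 6 h (Method 2A) or 18 h (Method 2B) at 37° C. Lysates captured on total-MCM2 antibody plates; pS40 MCM2 detected with rabbit anti-pMCM2 Ser40, HRP secondary and chemiluminescent substrate.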

| Structure (SMILES) | EC50 [nM] |
| --- | --- |
| C[C@@H]1CNCCN1c1nc(-c2ccnc(F)c2)[nH]c(=O)c1Cl [Compound 323] | 5.62 |
| O=c1[nH]c(-c2ccnc(F)c2)nc(N2CCCC(F)(F)C2)c1Cl [Compound 90, 5-chloro-4-(3,3-difluoro-1-piperidyl)-2-(2-fluoro-4-pyridyl)-1H-pyrimidin-6-one] | 13.5 |
| O=c1[nH]c(-c2ccnc(F)c2)nc(N2CCNCC(F)(F)C2)c1Cl [Compound 312, 5-chloro-4-(6,6-difluoro-1,4-diazepan-1-yl)-2-(2-fluoro-4-pyridyl)-1H-pyrimidin-6-one hydrochloride] | 7.59 |
